Laboratory results published in patent US12139472B2, “Inhibitors of advanced glycation end products” (priority 2019, dated 2024).

Molecular target: T1, CYP2C9 (Homo sapiens, UniProt P11712)
T1 construct: Two studies were conducted in human liver microsomes (HLM); tissue Eurofins G232 panel; host or cells: human liver microsomes
Assay: CYP2C9 inhibition (HLM), diclofenac
Assay type: in vitro ADME
Procedure: Compound 5 (PTG-630 free base) and 7 additional compounds for CYP3A P450 inhibition.
Two studies were conducted in human liver microsomes (HLM). Lead candidate PTG-630 was tested using the Eurofins G232 panel (Drug Metab Dispos. 2001 January; 29(1):23-9), where inhibition was measured against seven CYP enzymes; CYP3A4 was tested using two different substrates, midazolam and testosterone. In a second study, inhibition of CYP3A4 (midazolam substrate only) was compared for 8 compounds of interest. The test protocol involved one-point measurements in duplicate, where inhibition was measured at a fixed 10 μM concentration of candidate inhibitors. In all cases, the substrate for each CYP enzyme was at a concentration equal to its specific Km value that was independently obtained from an 8-point dose-response study. Based on the observed value for percent inhibition for each test compound, we calculated of an IC50 assuming a competitive mode of inhibition. If percent inhibition for an inhibitor at a concentration of [I] is denoted by P, then: IC50=[I]*(100−P)/P In the single-point assay, [I] is 10 μM. If measured inhibition is 10%, then IC50=10*(100-10)/10=90 μM. […] As discussed in Lin et al. (J Pharm Sci. 2007 September; 96(9):2485-93; doi: 10.1002/jps.20884), CYP inhibition is broadly interpreted as being “potent” if IC50<1 μM, “moderate” if 1 μM<IC50<10 μM, and “weak” if IC50>10 μM.

T1 sequence (P11712 whole entry): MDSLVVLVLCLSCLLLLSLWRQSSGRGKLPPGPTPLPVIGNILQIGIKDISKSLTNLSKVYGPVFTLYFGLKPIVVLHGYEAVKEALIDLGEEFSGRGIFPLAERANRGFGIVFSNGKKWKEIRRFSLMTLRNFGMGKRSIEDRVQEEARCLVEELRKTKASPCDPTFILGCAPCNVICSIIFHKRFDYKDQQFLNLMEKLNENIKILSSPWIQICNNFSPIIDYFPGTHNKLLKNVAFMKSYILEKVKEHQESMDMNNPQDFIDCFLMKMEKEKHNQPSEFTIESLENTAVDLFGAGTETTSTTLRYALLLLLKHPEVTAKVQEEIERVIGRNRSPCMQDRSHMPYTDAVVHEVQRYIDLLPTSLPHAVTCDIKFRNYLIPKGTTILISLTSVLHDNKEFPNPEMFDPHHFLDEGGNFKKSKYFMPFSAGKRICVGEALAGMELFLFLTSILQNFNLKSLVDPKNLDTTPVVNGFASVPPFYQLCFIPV

Cc1ncc(CN2CCOCC2)c(-c2ncc[nH]2)c1O [PTG-630]
IC50 (diclofenac, from one-point % inhibition at 10 μM, IC50=[I]*(100−P)/P, read-out: Estimated IC50): 284 µM | P % inhib (substrate diclofenac at Km, Inhib Conc. 1.0E−05 M): 3.4%
